This series in a line: Release of Valsartan from plant fiber bundle base (toothpick) in physiological saline, fluorescence analysis. Type of series: physicochemical. To be noted: toothpick impregnated at 10 mg/mL, released in physiological saline for 1, 3, 5, 10 minutes, 38 repetitions, FIG. 4. An excerpt:
Firstly, in step 100, antihypertensive agents are fixed onto a plant fiber bundle base such as a toothpick, i.e., solid antihypertensive agents attached onto the plant fiber bundle base. In this step, the plant fiber bundle base may be impregnated in liquid antihypertensive agents. Because of the physical adsorption properties of plant fiber bundles, the composition of the liquid antihypertensive agents is gradually adsorbed into the plant fiber bundles until the amount of antihypertensive agents on plant fiber bundle base reaches a saturated condition. In one embodiment, the concentration of antihypertensive agents (e.g., Valsartan) in liquid form is 2.5, 5, 8, 10, 20 mg/mL, respectively. Then, the plant fiber bundle base is removed. […] Next, in step 102, fluorescence analysis of the released anti-hypertensive agents is performed. […] Based on this feature, an optical instrument is used for fluorescence analysis of different concentrations of Valsartan affixed to toothpicks. Fluorescence analysis of different concentrations of Valsartan was performed using ImageJ image analysis software. […] An optical instrument is used to collect fluorescence data of Valsartan after release in physiological saline in 38 repetitions of the experiment. […]

We go through one molecule from patent US20150025119A1, “Release Application for Antihypertensive Agent on Plant Fiber Bundle” (National Tsing Hua University, priority 2013, published 2015).

For `CCCCC(=O)N(Cc1ccc(-c2ccccc2-c2nnn[nH]2)cc1)[C@H](C(=O)O)C(C)C` [Valsartan], the “proportion of release (release percentage) of Valsartan over time” value is “increases until the saturation level is reached”.
